Results: patent publication US20210025895A1, “CANCER SERUM BIOMARKERS AND METHODS OF USE THEREOF” (X4 Pharmaceuticals, Inc., priority 2018, published 2021)
Where “and” joins values, the source holds several entries; their conditions need not be identical. Equal entries are not always repeated.

Assays:
[1] = system: advanced or metastatic melanoma; assay: Tumor sample / tumor microenvironment biomarkers in solid tumors such as melanoma; format: in vivo, human
Experimental: A primary comparison is the density of specific cell phenotypes in the tumor microenvironment in the pre-treatment biopsy vs. the Week 4 and EOT biopsies. CD8^+ T cells/mm^−2 are measured in melanoma tumor parenchyma prior to treatment.

CXCL9 = assay: Serum CXCL9 in melanoma patients, Multi-Analyte Profile Platform (Myriad RBM); format: in vivo, human; conditions: individual melanoma patients
Experimental: (§1) Subjects were first screened and evaluated for baseline measurements.
(§2) Prior to treatment two (2) baseline serum samples were collected from each patient.
(§3) Three (3) weeks after treatment was initiated, additional serum samples were collected from each patient. Additional biopsy samples were also collected unless the attending physician recommended against the biopsy. Following sample collection, subjects were administered the first of two doses of pembrolizumab (2 mg/kg, i.v.).
(§4) Three (3) weeks after the administration of the first dose of pembrolizumab (six weeks from beginning of treatment) additional serum samples were collected from each patient. Subjects then administered a second dose of pemrolizumab (2 mg/kg, i.v.).
(§5) Three (3) weeks after the administration of the second dose of pembrolizumab (nine weeks from the beginning of treatment) additional serum samples were collected. Additional biopsy samples were also collected unless the attending physician recommended against the biopsy.
(§6) Five (5) additional patients were evaluated. Baselines in Tables 1 and 2 represent measurements taken on Day 1. Baselines in Tables 1a and 2a represent an average of two measurements taken at screening and on Day 1.

[2] = Phase 1 and 2a trials; cited from earlier work
in vivo = conditions: terminal half-life (T1/2)
[3] = system: serum cytokines and chemokines; assay: Serum chemokines, cytokines and growth factors in melanoma patients, change vs baseline; format: in vivo, human
Experimental: as §1, §2, §3, §6

[4] = system: melanoma, renal cell carcinoma, and ovarian cancer; conditions: murine models; cited from earlier work
CXCL10 = assay: Serum CXCL10 in melanoma patients, Multi-Analyte Profile Platform (Myriad RBM); format: in vivo, human; conditions: individual melanoma patients
Experimental: as §1, §2, §3, §4, §5, §6

Solubility of X4P-001 = format: physicochemical
[5] = system: unresectable or metastatic melanoma; conditions: Phase 3 trial, P<0.001; cited from earlier work
[6] = system: pancreatic adenocarcinoma; conditions: cited from earlier work
[7] = system: advanced clear-cell renal-cell carcinoma; conditions: cited from earlier work; for objective response rate: Phase 3, nivolumab 3 mg/kg iv every two weeks vs everolimus 10 mg orally daily, P<0.001
[8] = solid tumors, e.g. advanced or metastatic melanoma

With `NCCCCN(Cc1nc2ccccc2[nH]1)[C@H]1CCCc2cccnc21` [X4P-001] the “levels of Treg cells” value [1, 8] was “without significantly increasing levels of Treg cells”, the “levels of macrophages in the tumor” value [1, 8] was “without significantly modulating levels of macrophages in the tumor” and the “numbers of CD8+ T cells and/or CD4+ T cells in tumors” value [1, 8] was “increases observed numbers of CD8^+ T cells and/or CD4^+ T cells”. The IFN-γ gene signature ([1]; tumor) was “increases one or more of a panel of IFN-γ related genes”, the PD-L1 expression ([1]; tumor samples and tumor microenvironment) was “increases PD-L1 expression in tumor samples and the tumor microenvironment” and the “CTL signature gene expression” value ([1]; tumor samples or tumor microenvironment) was “increases gene expression of one or more of a panel of cytotoxic T cell (CTL)-related genes”. For the same molecule, the “Patient Serum CXCL9 Levels, Post-X4P-001 Monotherapy” value (CXCL9; Table 1, three weeks single agent therapy) was 836 pg/mL and 2260 pg/mL and 2530 pg/mL and 843 pg/mL and 2020 pg/mL and 1020 pg/mL and 1410 pg/mL and 766 pg/mL and 794 pg/mL and 1380 pg/mL and 425 pg/mL, the “Patient Serum CXCL9 Levels, Post-X4P-001 Monotherapy” value (CXCL9; Table 1a (updated data, 16 patients)) was 836 pg/mL and 2260 pg/mL and 2530 pg/mL and 843 pg/mL and 2020 pg/mL and 1020 pg/mL and 1410 pg/mL and 766 pg/mL and 1245 pg/mL and 769.5 pg/mL and 460.5 pg/mL and 1030 pg/mL and 1750 pg/mL and 794 pg/mL and 1380 pg/mL and 425 pg/mL and the “pharmacodynamic activity, circulating white blood cells (WBCs)” value [2] was “dose- and concentration-related changes in circulating white blood cells”. For the same molecule, the “volume of distribution (VL)” value [2] was “high volume of distribution”, the half-life (in vivo) was 12 to 24 h and the “serum CXCL9 and CXCL10 levels” value ([3]; following monotherapy, melanoma patients) was “generally increase following monotherapy”. The “levels of serum CXCL9 and CXCL10” value ([3]; patients with solid tumors, e.g. advanced or metastatic melanoma) was “increases levels of serum CXCL9 and CXCL10”, the “levels of serum cytokine panel” value ([3]; serum) was “modulates levels of one or more of a panel of serum cytokines” and the “anti-tumor activity, including decreased metastasis and increased overall survival” value [4] was “significant anti-tumor activity”. The “Patient Serum CXCL10 Levels, Post-X4P-001 Monotherapy” value (CXCL10; Table 2, three weeks single agent therapy) was 767 pg/mL and 146 pg/mL and 262 pg/mL and 101 pg/mL and 123 pg/mL and 384 pg/mL and 118 pg/mL and 174 pg/mL and 139 pg/mL and 331 pg/mL and 521 pg/mL, the “Patient Serum CXCL10 Levels, Post-X4P-001 Monotherapy” value (CXCL10; Table 2a (updated data, 16 patients)) was 767 pg/mL and 146 pg/mL (2×) and 262 pg/mL and 101 pg/mL and 123 pg/mL and 384 pg/mL and 118 pg/mL and 174 pg/mL and 272 pg/mL and 166 pg/mL and 350 pg/mL and 139 pg/mL and 331 pg/mL and 521 pg/mL and the solubility (Solubility of X4P-001; aqueous buffer, pH range 3.0 to 8.0 (freely soluble)) was > 100 mg/mL. The solubility in water (Solubility of X4P-001; water) was “only slightly soluble”.

For “pembrolizumab: humanized IgG4 kappa monoclonal antibody that blocks the interaction between PD-1 and its ligands”, the objective response rate [5] is given as 33%.

In the case of ipilimumab: anti-CTLA-4 antibody, the objective response rate [5] is listed as 12%.

For `c1cc(CN2CCCNCCNCCCNCC2)ccc1CN1CCCNCCNCCCNCC1` [plerixafor, Plerixafor], the tumor growth ([6]; in combination with anti-PD-L1) is listed as “synergistically decreased tumor growth”, the “T-cell accumulation among cancer cells” value ([6]; murine pancreatic adenocarcinoma) is listed as “induced rapid T-cell accumulation among the cancer cells” and the “anti-tumor activity, including decreased metastasis and increased overall survival” value [4] is listed as “significant anti-tumor activity”.

In the case of `CO[C@H]1C[C@@H]2CC[C@@H](C)[C@@](O)(O2)C(=O)C(=O)N2CCCC[C@H]2C(=O)O[C@H]([C@H](C)C[C@@H]2CC[C@@H](OCCO)[C@H](OC)C2)CC(=O)[C@H](C)/C=C(\C)[C@@H](O)[C@@H](OC)C(=O)[C@H](C)C[C@H](C)/C=C/C=C/C=C/1C` [everolimus], the objective response rate [7] is given as 5%.

For “nivolumab: fully human IgG4 monoclonal antibody binding to the PD-1 receptor”, the objective response rate [7] is listed as 25%, the “incidence of Grade 3 or 4 treatment-related adverse events” value ([7]; vs everolimus) is listed as “lower incidence of Grade 3 or 4 treatment-related adverse events” and the median overall survival ([7]; vs everolimus) is listed as “longer median overall survival”.
